Laboratory results reported in paper PMC8537327, “EGFR-Targeted Pentacyclic Triterpene Analogues for Glioma Therapy” (International Journal of Molecular Sciences, 2021).

What was measured:
[1] = tested on: U87 human glioblastoma cells; test: MTT cytotoxicity assay, U87 cells; type: cell-based; conditions: for IC50: Homo sapiens, U-87 MG, MTT, 72 h; for anticancer activity against U87 cells: at 100 µM concentration
Method: (§1) U251, T98G (Japanese Collection of Research Bioresources Cell Bank), and U87 human glioblastoma cell lines were incubated in Dulbecco’s Modified Eagle Medium (DMEM)/Ham’s F12 (Wako Pure Chemical Industries, Osaka, Japan), Eagle’s Minimum Essential Medium (EMEM; Wako Pure Chemical Industries, Osaka, Japan), and DMEM (Gibco/Thermo Fisher Scientific, Waltham, MA, USA) respectively, and supplemented with 10% fetal bovine serum (FBS; Sigma Aldrich, MO, USA). Jurkat human leukemic T-cell line was cultured in Roswell Park Memorial Institute (RPMI) 1640 (Wako Pure Chemical Industries, Osaka, Japan), supplemented with 10% FBS. PBMCs (Precision Bioservices, Frederick, MD, USA) were incubated in RPMI 1640 and supplemented with 10% human serum AB (HS) (Gemini, Woodland, CA, USA). All media were supplemented with 89 μg/mL streptomycin (Meiji Seika Pharma, Tokyo, Japan) at 37 °C in a humid atmosphere and 5% CO2. For each experiment, growing cells were plated at 4 × 10^4 cells/mL and 6 × 10^5 cells/mL into 24-well and 96-well microtiter tissue culture plates (Iwaki brand Asahi Glass Co., Chiba, Japan) respectively and incubated for 72 h before the addition of the drugs (the optimal cell number for cytotoxicity assays was determined in preliminary experiments). The stock solutions of the compounds and cisplatin (Sigma-Aldrich, St. Louis, MO, USA) in concentrations between 0.1–10 mM were prepared in dimethyl sulfoxide (DMSO; Wako Pure Chemical Industries, Osaka, Japan) and in H2O respectively, then were added to fresh culture medium. The concentration of DMSO and H2O in the final culture medium was 1% which had no effect on the cell viability.
(§2) The MTT (Dojindo Molecular Technologies, Kumamoto, Japan) assay was carried out using the U251, T98G, U87, Jurkat, and PBMC cells to determine the cytotoxicity of compounds 1–13 and cisplatin as previously described in the literature with small modifications. Treated cells were incubated with different concentrations (1–100 µM) of the compounds for 72 h at 37 °C in the CO2 incubator. About 100 µL (1.1 mg/mL) of MTT solution was added to each well and after further incubation for 4 h, formazan crystals formed. At the end of this period, the medium was removed and the formazan crystals were solubilized by the addition of 100 μL DMSO to each well. The absorbance was read on an Infinite M1000 plate reader (Tecan, Mannedorf, Switzerland) at a wavelength of 550 nm with background subtraction at 630 nm. All experiments were performed in triplicate and IC50 values were defined as the drug concentrations that reduced absorbance to 50% of control values.

[2] = tested on: U251 human glioblastoma cells; test: MTT cytotoxicity assay, U251 cells; type: cell-based; conditions: for IC50: Homo sapiens, U-251, MTT, 72 h; for anticancer activity against U251 cells: at 100 µM concentration
Method: as §1, §2

K562 CML cell line = tested on: K562 CML cell line; design: method as in PMID 31574910; conditions: previously reported by the authors; read-out: IC50, cytotoxic activity against K562 CML cell line; cited from earlier work
K562 cells = tested on: K562 cells; design: method as in PMID 31574910; conditions: previously reported by the authors; cited from earlier work
[3] = tested on: T98G human glioblastoma cells; test: MTT cytotoxicity assay, T98G cells; type: cell-based; conditions: for IC50: Homo sapiens, T98G, MTT, 72 h; for anticancer activity against T98G cells: at 100 µM concentration
Method: as §1, §2

IGF1R = target: T1, IGF1R (Homo sapiens, UniProt P08069); test: Kinase profiling assay (ADP-Glo), IGF1R; type: biochemical; conditions: 30 µM concentration
T1 construct: purchased Promega Corporation
Method: (§3) The kinase profiling assay protocol (TK1 and TK-2) was applied according to the manufacturer‘s instructions (Promega Corporation, Madison, WI, USA) with few modifications. In regard to this protocol, the EGFR, HER2, HER4, IGF1R, InsR, KDR, PDGFR-α, PDGFR-β, ABL1, BRK, BTK, CSK, FYN A, LCK, LYN B, and SRC kinase stocks in the kinase strips were diluted with 95 µL 2.5x kinase buffer and their substrate stock in the substrate strip was diluted with 15 µL of 100 µM ATP solutions. Then, the kinase reactions were performed using 2 µL of the kinase working stocks, 2 µL of the ATP/substrate working stocks, and 1 µL of compound solution (0.1–100 µM) or 5% DMSO solution in the 384-well plate. After 4 h of incubation at room temperature, the activity of kinases was detected using ADP-Glo Kinase Assay (Promega Corporation, Madison, WI, USA) according to the manufacturer‘s protocol. Briefly, 5 µL of ADP-Glo reagent was added into each well of 384-well plate and the mixture was incubated at room temperature for 40 min to stop the kinase reaction and deplete any ATP remaining. Then, 10 µL Kinase Detection Reagent was added and the mixture was incubated for a further 30 min to convert the kinase-produced ADP to ATP, and then to light. […]

BRK = target: T2, BRK (Homo sapiens, UniProt Q13882); test: Kinase profiling assay (ADP-Glo), BRK; type: biochemical; conditions: 30 µM concentration
T2 construct: purchased Promega Corporation
Method: as §3

ABL1 = target: T3, ABL1 (Homo sapiens, UniProt P00519); test: Kinase profiling assay (ADP-Glo), ABL1; type: biochemical; conditions: 30 µM concentration
T3 construct: purchased Promega Corporation
Method: as §3

U251 cells = test: Annexin V/ethidium homodimer III staining, apoptotic/necrotic cell detection; type: cell-based, human; conditions: 24 h; IC50 concentration (Figure 4 legend), 5 μM (method)
Method: U251 cells (4 × 10^4 cells/well) were seeded in each well of a 24-well plate with compound 10 and cisplatin at 5 μM concentration for 24 h. Then, the apoptotic/necrotic/healthy cells detection kit protocol was applied according to the manufacturer’s instructions (PromoKine, Heidelberg, Germany) with few modifications. Briefly, the cells were washed twice with 1 × binding buffer and then treated with FITC-Annexin V (5 μL), ethidium homodimer III (5 μL), and Hoechst 33342 (5 μL) for 20 min at room temperature in a protected-light environment. After washing in 1 × binding buffer, cells were analyzed under an all-in-one fluorescence microscope Biorevo Fluorescence BZ-9000 (Keyence, Osaka, Japan). Healthy cells, apoptotic cells, late apoptotic or necrotic cells, and necrotic cells were counted as previously described.

HER2 = target: T4, HER2 (Homo sapiens, UniProt P04626); test: Kinase profiling assay (ADP-Glo), HER2; type: biochemical; conditions: 30 µM concentration
T4 construct: purchased Promega Corporation
Method: as §3

LYN B = target: T5, LYN B (Homo sapiens, UniProt P07948); test: Kinase profiling assay (ADP-Glo), LYN B; type: biochemical; conditions: 30 µM concentration
T5 construct: purchased Promega Corporation
Method: as §3

[4] = tested on: human peripheral blood mononuclear cells (PBMCs); test: MTT cytotoxicity assay, PBMCs; type: cell-based; conditions: Homo sapiens, PBMC, 72 h
Method: as §1, §2

EGFR = target: T6, EGFR (Homo sapiens, UniProt P00533); test: Kinase inhibition assay (ADP-Glo), EGFR; type: biochemical
T6 construct: purchased Promega Corporation
Method: The kinase profiling assay protocol (TK1 and TK-2) was applied according to the manufacturer‘s instructions (Promega Corporation, Madison, WI, USA) with few modifications. In regard to this protocol, the EGFR, HER2, HER4, IGF1R, InsR, KDR, PDGFR-α, PDGFR-β, ABL1, BRK, BTK, CSK, FYN A, LCK, LYN B, and SRC kinase stocks in the kinase strips were diluted with 95 µL 2.5x kinase buffer and their substrate stock in the substrate strip was diluted with 15 µL of 100 µM ATP solutions. Then, the kinase reactions were performed using 2 µL of the kinase working stocks, 2 µL of the ATP/substrate working stocks, and 1 µL of compound solution (0.1–100 µM) or 5% DMSO solution in the 384-well plate. After 4 h of incubation at room temperature, the activity of kinases was detected using ADP-Glo Kinase Assay (Promega Corporation, Madison, WI, USA) according to the manufacturer‘s protocol. Briefly, 5 µL of ADP-Glo reagent was added into each well of 384-well plate and the mixture was incubated at room temperature for 40 min to stop the kinase reaction and deplete any ATP remaining. Then, 10 µL Kinase Detection Reagent was added and the mixture was incubated for a further 30 min to convert the kinase-produced ADP to ATP, and then to light.

SRC = target: T7, SRC (Homo sapiens, UniProt P12931); test: Kinase profiling assay (ADP-Glo), SRC; type: biochemical; conditions: 30 µM concentration
T7 construct: purchased Promega Corporation
Method: as §3

BTK = target: T8, BTK (Homo sapiens, UniProt Q06187); test: Kinase profiling assay (ADP-Glo), BTK; type: biochemical; conditions: 30 µM concentration
T8 construct: purchased Promega Corporation
Method: as §3

FYN A = target: T9, FYN A (Homo sapiens, UniProt P06241); test: Kinase profiling assay (ADP-Glo), FYN A; type: biochemical; conditions: 30 µM concentration
T9 construct: purchased Promega Corporation
Method: as §3

HER4 = target: T10, HER4 (Homo sapiens, UniProt Q15303); test: Kinase profiling assay (ADP-Glo), HER4; type: biochemical; conditions: 30 µM concentration
T10 construct: purchased Promega Corporation
Method: as §3

[5] = tested on: Jurkat human leukemic T-cells; test: MTT cytotoxicity assay, Jurkat cells; type: cell-based
Method: as §1, §2

ABL1 kinase = target: ABL1 kinase; design: method as in PMID 31574910; conditions: previously reported by the authors; read-out: ABL1 kinase inhibition IC50; cited from earlier work

T6 sequence (P00533 25-1210): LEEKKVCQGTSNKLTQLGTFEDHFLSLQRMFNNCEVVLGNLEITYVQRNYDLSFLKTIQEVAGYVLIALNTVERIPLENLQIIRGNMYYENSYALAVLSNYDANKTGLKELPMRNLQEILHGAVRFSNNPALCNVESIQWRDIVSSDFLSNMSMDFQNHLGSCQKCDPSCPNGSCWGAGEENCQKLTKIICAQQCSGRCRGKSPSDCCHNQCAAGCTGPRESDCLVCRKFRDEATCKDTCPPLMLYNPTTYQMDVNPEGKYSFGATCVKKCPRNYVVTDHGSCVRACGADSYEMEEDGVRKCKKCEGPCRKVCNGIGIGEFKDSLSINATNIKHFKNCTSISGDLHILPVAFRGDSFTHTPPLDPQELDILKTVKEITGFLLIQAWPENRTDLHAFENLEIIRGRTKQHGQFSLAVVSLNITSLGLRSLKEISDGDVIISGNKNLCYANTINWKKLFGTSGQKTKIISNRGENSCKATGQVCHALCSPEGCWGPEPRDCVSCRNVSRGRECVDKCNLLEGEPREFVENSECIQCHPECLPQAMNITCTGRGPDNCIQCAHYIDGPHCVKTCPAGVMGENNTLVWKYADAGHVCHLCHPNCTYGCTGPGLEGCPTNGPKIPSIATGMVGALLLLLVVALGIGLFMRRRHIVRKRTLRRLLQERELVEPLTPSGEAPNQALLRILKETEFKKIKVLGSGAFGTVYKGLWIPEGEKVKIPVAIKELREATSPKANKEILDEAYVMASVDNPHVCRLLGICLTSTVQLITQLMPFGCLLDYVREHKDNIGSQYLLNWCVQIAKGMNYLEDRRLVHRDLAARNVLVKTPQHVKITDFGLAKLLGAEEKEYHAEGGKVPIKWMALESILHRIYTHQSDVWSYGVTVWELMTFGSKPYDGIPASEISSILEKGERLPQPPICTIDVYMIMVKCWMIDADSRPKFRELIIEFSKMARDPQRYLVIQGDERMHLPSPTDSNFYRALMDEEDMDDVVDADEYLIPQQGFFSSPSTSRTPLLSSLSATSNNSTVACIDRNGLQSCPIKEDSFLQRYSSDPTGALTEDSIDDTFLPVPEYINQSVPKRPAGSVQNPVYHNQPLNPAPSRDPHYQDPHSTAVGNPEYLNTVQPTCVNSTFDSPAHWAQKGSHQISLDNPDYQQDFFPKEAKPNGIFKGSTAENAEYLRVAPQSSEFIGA
T5 sequence (P07948 1-491 isoform P07948-2): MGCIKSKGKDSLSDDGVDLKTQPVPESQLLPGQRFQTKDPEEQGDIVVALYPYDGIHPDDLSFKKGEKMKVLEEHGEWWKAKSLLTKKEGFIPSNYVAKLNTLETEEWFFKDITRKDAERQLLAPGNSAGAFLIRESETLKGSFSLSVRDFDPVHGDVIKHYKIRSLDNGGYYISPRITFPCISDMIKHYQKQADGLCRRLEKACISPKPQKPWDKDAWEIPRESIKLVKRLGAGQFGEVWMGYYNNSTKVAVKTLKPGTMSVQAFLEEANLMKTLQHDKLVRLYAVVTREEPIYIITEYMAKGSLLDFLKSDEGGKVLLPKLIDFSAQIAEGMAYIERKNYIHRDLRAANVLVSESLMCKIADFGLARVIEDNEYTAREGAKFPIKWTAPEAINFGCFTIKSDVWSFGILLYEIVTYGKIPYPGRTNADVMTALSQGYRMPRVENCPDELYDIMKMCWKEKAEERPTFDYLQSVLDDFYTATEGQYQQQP
T2 sequence (Q13882 whole entry): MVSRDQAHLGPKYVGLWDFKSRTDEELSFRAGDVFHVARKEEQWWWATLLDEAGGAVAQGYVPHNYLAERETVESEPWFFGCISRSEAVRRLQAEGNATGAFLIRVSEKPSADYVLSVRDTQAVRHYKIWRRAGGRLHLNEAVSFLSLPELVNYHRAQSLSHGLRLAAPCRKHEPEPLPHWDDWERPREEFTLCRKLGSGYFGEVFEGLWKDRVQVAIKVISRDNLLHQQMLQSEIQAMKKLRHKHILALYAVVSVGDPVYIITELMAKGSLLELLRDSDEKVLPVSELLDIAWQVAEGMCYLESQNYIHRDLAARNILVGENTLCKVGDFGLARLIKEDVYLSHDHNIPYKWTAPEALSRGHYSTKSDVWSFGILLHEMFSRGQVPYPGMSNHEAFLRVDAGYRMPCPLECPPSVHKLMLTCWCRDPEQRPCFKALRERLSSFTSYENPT
T10 sequence (Q15303 26-1308): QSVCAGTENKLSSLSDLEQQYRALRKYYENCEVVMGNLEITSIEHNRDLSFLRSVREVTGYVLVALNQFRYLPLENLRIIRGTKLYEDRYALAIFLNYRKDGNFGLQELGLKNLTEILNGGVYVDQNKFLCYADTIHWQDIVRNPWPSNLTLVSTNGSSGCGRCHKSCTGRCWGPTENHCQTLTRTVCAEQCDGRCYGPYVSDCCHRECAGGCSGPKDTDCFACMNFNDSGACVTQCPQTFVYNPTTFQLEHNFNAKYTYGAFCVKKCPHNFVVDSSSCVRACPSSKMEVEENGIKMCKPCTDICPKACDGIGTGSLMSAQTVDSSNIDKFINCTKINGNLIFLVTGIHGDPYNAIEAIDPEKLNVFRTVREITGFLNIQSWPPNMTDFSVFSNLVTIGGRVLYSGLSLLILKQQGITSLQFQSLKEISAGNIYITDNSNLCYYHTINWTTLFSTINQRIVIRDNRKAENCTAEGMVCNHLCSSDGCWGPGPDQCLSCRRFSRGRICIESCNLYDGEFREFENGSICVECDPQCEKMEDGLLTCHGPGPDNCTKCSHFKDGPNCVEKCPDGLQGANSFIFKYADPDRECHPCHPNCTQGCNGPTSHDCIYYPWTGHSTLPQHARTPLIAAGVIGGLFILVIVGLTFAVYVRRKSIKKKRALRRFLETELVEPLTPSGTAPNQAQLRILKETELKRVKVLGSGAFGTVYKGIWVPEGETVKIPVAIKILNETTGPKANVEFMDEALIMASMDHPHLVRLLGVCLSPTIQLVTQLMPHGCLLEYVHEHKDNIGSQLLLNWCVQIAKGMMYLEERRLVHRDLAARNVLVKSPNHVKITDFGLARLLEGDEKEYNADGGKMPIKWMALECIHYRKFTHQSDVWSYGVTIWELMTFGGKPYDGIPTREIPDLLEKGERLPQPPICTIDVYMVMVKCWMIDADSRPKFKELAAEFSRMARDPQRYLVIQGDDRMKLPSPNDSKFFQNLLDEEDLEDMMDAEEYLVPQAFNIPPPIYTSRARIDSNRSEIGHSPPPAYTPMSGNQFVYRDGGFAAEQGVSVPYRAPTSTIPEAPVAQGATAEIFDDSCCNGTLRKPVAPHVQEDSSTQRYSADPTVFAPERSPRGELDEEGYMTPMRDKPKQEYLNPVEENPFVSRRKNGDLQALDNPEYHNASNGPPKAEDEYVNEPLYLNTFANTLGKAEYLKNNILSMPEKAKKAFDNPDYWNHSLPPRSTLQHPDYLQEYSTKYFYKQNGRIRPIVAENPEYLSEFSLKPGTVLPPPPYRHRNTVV
T1 sequence (P08069 31-1367): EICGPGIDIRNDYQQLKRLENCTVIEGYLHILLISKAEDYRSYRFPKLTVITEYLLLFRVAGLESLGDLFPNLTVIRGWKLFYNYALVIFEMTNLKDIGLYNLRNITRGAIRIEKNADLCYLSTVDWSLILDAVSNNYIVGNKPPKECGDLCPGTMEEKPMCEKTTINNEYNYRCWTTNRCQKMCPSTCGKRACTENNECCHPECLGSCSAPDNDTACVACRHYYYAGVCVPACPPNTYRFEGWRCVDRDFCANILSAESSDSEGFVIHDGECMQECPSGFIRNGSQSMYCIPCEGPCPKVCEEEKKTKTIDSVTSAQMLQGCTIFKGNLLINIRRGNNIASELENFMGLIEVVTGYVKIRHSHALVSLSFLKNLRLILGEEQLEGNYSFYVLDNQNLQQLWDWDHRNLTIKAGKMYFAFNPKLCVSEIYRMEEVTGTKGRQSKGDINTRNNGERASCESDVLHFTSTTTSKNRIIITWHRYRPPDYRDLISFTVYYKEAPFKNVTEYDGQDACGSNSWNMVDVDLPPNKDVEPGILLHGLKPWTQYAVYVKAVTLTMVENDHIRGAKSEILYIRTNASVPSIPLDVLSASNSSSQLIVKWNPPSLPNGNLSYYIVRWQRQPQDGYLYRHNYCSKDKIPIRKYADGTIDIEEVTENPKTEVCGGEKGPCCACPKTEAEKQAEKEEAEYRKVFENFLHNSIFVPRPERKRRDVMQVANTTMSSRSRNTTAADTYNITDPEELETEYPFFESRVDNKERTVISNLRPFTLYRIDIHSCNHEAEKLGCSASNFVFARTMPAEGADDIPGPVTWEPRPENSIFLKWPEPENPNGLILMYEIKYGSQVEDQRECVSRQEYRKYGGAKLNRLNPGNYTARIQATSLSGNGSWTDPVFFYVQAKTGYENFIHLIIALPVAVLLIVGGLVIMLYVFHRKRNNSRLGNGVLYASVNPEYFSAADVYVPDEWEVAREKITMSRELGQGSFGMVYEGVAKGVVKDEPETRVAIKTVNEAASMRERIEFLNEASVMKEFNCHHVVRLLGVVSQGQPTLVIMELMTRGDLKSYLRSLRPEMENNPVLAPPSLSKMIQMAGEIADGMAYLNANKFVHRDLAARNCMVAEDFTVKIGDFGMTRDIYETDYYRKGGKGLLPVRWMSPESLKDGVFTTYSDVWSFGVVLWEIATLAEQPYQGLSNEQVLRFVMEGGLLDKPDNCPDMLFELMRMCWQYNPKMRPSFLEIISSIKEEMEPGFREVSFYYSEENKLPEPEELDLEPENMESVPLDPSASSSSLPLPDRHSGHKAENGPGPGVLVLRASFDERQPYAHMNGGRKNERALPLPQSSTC

Which results are given for `CC1(C)CC[C@]2(C(=O)OCc3cc(C(F)(F)F)cc(C(F)(F)F)c3)CC[C@]3(C)C(=CC[C@@H]4[C@@]5(C)CC[C@H](O)[C@@](C)(C=O)[C@@H]5CC[C@]43C)[C@@H]2C1` [Compound 8]?
IC50 [1]: > 100 µM; anticancer activity against U87 cells [1]: no significant anticancer activity; IC50 [2]: > 100 µM; anticancer activity against U251 cells [2]: no significant anticancer activity; IC50 (K562 CML cell line): 4.78 µM; apoptosis in K562 cells (K562 cells): 24%; IC50 [3]: > 100 µM; anticancer activity against T98G cells [3]: no significant anticancer activity

For `C[C@@H](NCC1(C)C(O)CCC2(C)C1CCC1(C)C2CC=C2C3CC(C)(C)CCC3(C(=O)O)CCC21C)c1ccccc1` (stereo partly drawn) [Compound 10, 10-Hydroxy-2,2,6a,6b,9,12a-hexamethyl-9-[(((R)-1-phenylethyl)amino)methyl]-1,2,3,4,4a,5,6,6a,6b,7,8,8a,9,10,11,12,12a,12b,13,14b-icosahydropicene-4a-carboxylic acid], which IC50 [1] is on record?
Its IC50 is 17 ± 4.92 µM.

What about the IC50 [2] of the same compound?
Its IC50 is 5.82 ± 1.66 µM.

What about the IGF1R inhibition (IGF1R) of the same compound?
Its IGF1R inhibition is “no significant inhibition”.

What about the BRK inhibition (BRK) of the same compound?
The BRK inhibition was “no significant inhibition”.

What about the melting point of the same compound?
The melting point was 240 to 243 °C.

What about the ABL1 inhibition (ABL1) of the same compound?
Its ABL1 inhibition is “moderate”.

What about the “apoptosis in U251 cells” value (U251 cells) of the same compound?
Its value is 10.29%.

And the HER2 inhibition (HER2)?
The HER2 inhibition was “moderate”.

What about the “LYN B inhibition” value (LYN B) of the same compound?
Its value is “no significant inhibition”.

What about the IC50 [3] of the same compound?
The IC50 was 8.19 ± 2.42 µM.

And the IC50 [4]?
The IC50 was 28.1 ± 5.05 µM.

What about the “EGFR inhibition relative to InsR inhibition” value (EGFR; 30 µM concentration, stronger inhibition of EGFR than InsR) of the same compound?
The value was “approximately 2 fold”.

What about the IC50 (EGFR; ADP-Glo kinase assay) of the same compound?
The IC50 was 9.43 µM.

And the SRC inhibition (SRC)?
Its SRC inhibition is “no significant inhibition”.

What about the BTK inhibition (BTK) of the same compound?
Its BTK inhibition is “no significant inhibition”.

And the “FYN A inhibition” value (FYN A)?
Its value is “moderate”.

And the HER4 inhibition (HER4)?
The HER4 inhibition was “no significant inhibition”.

And the IC50 ([5]; Homo sapiens, Jurkat, MTT, 72 h)?
Its IC50 is 3.56 ± 1.45 µM.

What about the “SI (selectivity index)” value ([5]; SI = IC50 for PBMCs/IC50 for Jurkat cells) of the same compound?
Its value is 7.90.

For `CC1(C)CC[C@]2(C(=O)OCc3ccccc3)CC[C@]3(C)C(=CC[C@@H]4[C@@]5(C)CC[C@H](O)C(C)(C)[C@@H]5CC[C@]43C)[C@@H]2C1` [Compound 5], which IC50 [1] is on record?
The IC50 was > 100 µM.

And the “anticancer activity against U87 cells” value [1]?
The value was “no significant anticancer activity”.

And the IC50 [2]?
The IC50 was > 100 µM.

What about the “anticancer activity against U251 cells” value [2] of the same compound?
Its value is “no significant anticancer activity”.

What about the IC50 (K562 CML cell line) of the same compound?
Its IC50 is 5.46 µM.

And the IC50 (ABL1 kinase)?
Its IC50 is 1.44 µM.

What about the IC50 [3] of the same compound?
Its IC50 is > 100 µM.

And the “anticancer activity against T98G cells” value [3]?
The value was “no significant anticancer activity”.
